Tests used:
Assay in all cases: relative viability (nuclei count vs DMSO), 5 days (fraction); higher = more cells survive
[1] = compound: O=S(=O)(c1ccccc1)N(CC(F)(F)F)c1ccc(C(O)(C(F)(F)F)C(F)(F)F)cc1 + CC(=O)c1c(C)c2cnc(Nc3ccc(N4CCNCC4)cn3)nc2n(C2CCCC2)c1=O [Palbociclib] (partner 0.5 µM)
Outline: (§1)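 After 5 days of treatment, lung cancer cells in 1536-well plates were fixed and stained in a single step (final 0.05% Triton X-100, 1% formaldehyde, 1 ug/ml Hoechst) and their nuclei counted on 4× images. Treatment had been applied by pin tool the day after seeding as one drug alone or as a fixed anchor-drug dose with five library-drug doses (not always all listed) in √10 steps. Relative viability is the nuclei count of treated wells divided by that of vehicle wells, and values are medians of duplicate plates.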

[2] = compound: O=S(=O)(c1ccccc1)N(CC(F)(F)F)c1ccc(C(O)(C(F)(F)F)C(F)(F)F)cc1 + NC(=O)Nc1cc(-c2cccc(F)c2)sc1C(=O)N[C@H]1CCCNC1 [AZD7762] (partner 0.2 µM)
Outline: as §1

RO-3306 + Pictilisib = compound: C1=CC2=C(C=CC(=C2)C=C3C(=O)NC(=NCC4=CC=CS4)S3)N=C1 [RO-3306] + CS(=O)(=O)N1CCN(Cc2cc3nc(-c4cccc5[nH]ncc45)nc(N4CCOCC4)c3s2)CC1 [Pictilisib] (partner 1 µM)
Outline: as §1

RO-3306 + Olaparib = compound: C1=CC2=C(C=CC(=C2)C=C3C(=O)NC(=NCC4=CC=CS4)S3)N=C1 [RO-3306] + O=C(c1cc(Cc2n[nH]c(=O)c3ccccc23)ccc1F)N1CCN(C(=O)C2CC2)CC1 [Olaparib] (partner 8 µM)
Outline: as §1

[3] = compound: O=S(=O)(c1ccccc1)N(CC(F)(F)F)c1ccc(C(O)(C(F)(F)F)C(F)(F)F)cc1 + O=C(c1cc(Cc2n[nH]c(=O)c3ccccc23)ccc1F)N1CCN(C(=O)C2CC2)CC1 [Olaparib] (partner 8 µM)
Outline: as §1

Cell Line	relative viability ([1]; first compound 0.8 µM)	relative viability ([1]; first compound 2.53 µM)	relative viability ([1]; first compound 8 µM)	relative viability ([2]; first compound 0.8 µM)	relative viability ([2]; first compound 2.53 µM)	relative viability ([2]; first compound 8 µM)	relative viability (RO-3306 + Pictilisib; first compound 0.01 µM)	relative viability (RO-3306 + Pictilisib; first compound 0.03162 µM)	relative viability (RO-3306 + Pictilisib; first compound 0.1 µM)	relative viability (RO-3306 + Pictilisib; first compound 0.3162 µM)	relative viability (RO-3306 + Pictilisib; first compound 1 µM)	relative viability (RO-3306 + Olaparib; first compound 0.01 µM)	relative viability (RO-3306 + Olaparib; first compound 0.03162 µM)	relative viability (RO-3306 + Olaparib; first compound 0.1 µM)	relative viability (RO-3306 + Olaparib; first compound 0.3162 µM)	relative viability (RO-3306 + Olaparib; first compound 1 µM)	relative viability ([3]; first compound 0.8 µM)	relative viability ([3]; first compound 2.53 µM)	relative viability ([3]; first compound 8 µM)
LOU-NH91	0.524	0.527	0.561	0.801	0.8	0.796	0.512	0.528	0.522	0.533	0.406	0.953	0.834	0.916	0.913	0.813	0.966	0.935	0.913
NCI-H647	0.329	0.305	0.408	0.483	0.388	0.535	0.326	0.464	0.401	0.454	0.299	0.86	0.212	0.487	0.686	0.623	0.667	0.418	0.6
NCI-H522	1.01	1.14	0.913	1.13	0.824	0.859						0.619	0.561	0.634	0.546	0.608	0.597	0.614	0.714
IA-LM							0.339	0.242	0.311	0.278	0.36	0.975		0.785	0.846	0.865	0.94	0.651	0.681
EBC-1							0.454	0.327	0.397	0.448	0.286	0.838	0.559	0.632	0.839	0.751	0.692	0.584	0.597

— the supplement of paper PMC10307832
